± gives the expanded uncertainty stated by the source.
Experiment: excess molar enthalpy (molar enthalpy of mixing); xn = mol fraction of the nth substance listed
Conditions: Liquid

Work on `CO` [methanol] + O yielded an excess molar enthalpy (505.01 K, 10000 kPa, x1 = 0.2) of 0.0844 ± 0.00335 kcal/mol, an excess molar enthalpy (505.63 K, 10000 kPa, x1 = 0.6) of 0.0984 ± 0.00382 kcal/mol and an excess molar enthalpy (505.93 K, 8500 kPa, x1 = 0.3) of 0.0752 ± 0.00311 kcal/mol. The excess molar enthalpy (506.02 K, 8500 kPa, x1 = 0.2) was 0.0617 ± 0.00263 kcal/mol, the excess molar enthalpy (506.29 K, 8500 kPa, x1 = 0.4) was 0.0736 ± 0.00311 kcal/mol and the excess molar enthalpy (506.52 K, 10000 kPa, x1 = 0.2) was 0.0828 ± 0.00335 kcal/mol. For the same compound, the excess molar enthalpy (506.53 K, 10000 kPa, x1 = 0.4) was 0.108 ± 0.00406 kcal/mol, the excess molar enthalpy (506.59 K, 8500 kPa, x1 = 0.1) was 0.0371 ± 0.00189 kcal/mol and the excess molar enthalpy (506.7 K, 8500 kPa, x1 = 0.5) was 0.0603 ± 0.00263 kcal/mol. For the same compound, the excess molar enthalpy (507.3 K, 8500 kPa, x1 = 0.6) was 0.0391 ± 0.00201 kcal/mol, the excess molar enthalpy (507.4 K, 10000 kPa, x1 = 0.8) was 0.0512 ± 0.00232 kcal/mol and the excess molar enthalpy (507.5 K, 10000 kPa, x1 = 0.6) was 0.093 ± 0.00359 kcal/mol. The excess molar enthalpy (507.82 K, 8500 kPa, x1 = 0.7) was 0.0164 ± 0.00165 kcal/mol, the excess molar enthalpy (507.86 K, 8500 kPa, x1 = 0.1) was 0.0344 ± 0.00182 kcal/mol and the excess molar enthalpy (508.01 K, 8500 kPa, x1 = 0.2) was 0.0531 ± 0.00239 kcal/mol. The excess molar enthalpy (508.15 K, 8500 kPa, x1 = 0.1) was 0.0342 ± 0.00182 kcal/mol, the excess molar enthalpy (508.15 K, 8500 kPa, x1 = 0.2) was 0.0525 ± 0.00237 kcal/mol and the excess molar enthalpy (508.15 K, 8500 kPa, x1 = 0.3) was 0.0606 ± 0.00263 kcal/mol. The excess molar enthalpy (508.15 K, 8500 kPa, x1 = 0.4) was 0.0578 ± 0.00263 kcal/mol, the excess molar enthalpy (508.15 K, 8500 kPa, x1 = 0.5) was 0.0455 ± 0.00215 kcal/mol and the excess molar enthalpy (508.15 K, 8500 kPa, x1 = 0.6) was 0.0288 ± 0.00179 kcal/mol. It also gave an excess molar enthalpy (508.15 K, 8500 kPa, x1 = 0.7) of 0.012 ± 0.00167 kcal/mol, an excess molar enthalpy (508.15 K, 8500 kPa, x1 = 0.8) of -0.00588 ± 0.00174 kcal/mol and an excess molar enthalpy (508.15 K, 8500 kPa, x1 = 0.9) of -0.0143 ± 0.00179 kcal/mol. The excess molar enthalpy (508.15 K, 10000 kPa, x1 = 0.2) was 0.0818 ± 0.00335 kcal/mol, the excess molar enthalpy (508.15 K, 10000 kPa, x1 = 0.4) was 0.103 ± 0.00382 kcal/mol and the excess molar enthalpy (508.15 K, 10000 kPa, x1 = 0.6) was 0.0886 ± 0.00359 kcal/mol. For the same compound, the excess molar enthalpy (508.15 K, 10000 kPa, x1 = 0.8) was 0.0489 ± 0.00225 kcal/mol, the excess molar enthalpy (508.29 K, 8500 kPa, x1 = 0.8) was -0.00834 ± 0.00179 kcal/mol and the excess molar enthalpy (508.45 K, 8500 kPa, x1 = 0.9) was -0.0172 ± 0.00189 kcal/mol. The excess molar enthalpy (508.63 K, 10000 kPa, x1 = 0.8) was 0.0472 ± 0.00232 kcal/mol, the excess molar enthalpy (508.68 K, 8500 kPa, x1 = 0.4) was 0.0514 ± 0.00234 kcal/mol and the excess molar enthalpy (509.15 K, 8500 kPa, x1 = 0.3) was 0.0516 ± 0.00234 kcal/mol. The excess molar enthalpy (509.29 K, 8500 kPa, x1 = 0.5) was 0.03 ± 0.00167 kcal/mol, the excess molar enthalpy (509.71 K, 10000 kPa, x1 = 0.2) was 0.0786 ± 0.00311 kcal/mol and the excess molar enthalpy (509.71 K, 10000 kPa, x1 = 0.6) was 0.0815 ± 0.00335 kcal/mol. For the same compound, the excess molar enthalpy (509.71 K, 10000 kPa, x1 = 0.8) was 0.0423 ± 0.0022 kcal/mol, the excess molar enthalpy (509.91 K, 8500 kPa, x1 = 0.1) was 0.0298 ± 0.00167 kcal/mol and the excess molar enthalpy (509.91 K, 8500 kPa, x1 = 0.2) was 0.0434 ± 0.00208 kcal/mol. The excess molar enthalpy (509.91 K, 8500 kPa, x1 = 0.3) was 0.0466 ± 0.00217 kcal/mol, the excess molar enthalpy (509.91 K, 8500 kPa, x1 = 0.4) was 0.0384 ± 0.00194 kcal/mol and the excess molar enthalpy (509.91 K, 8500 kPa, x1 = 0.5) was 0.0221 ± 0.00146 kcal/mol. For the same compound, the excess molar enthalpy (509.91 K, 8500 kPa, x1 = 0.6) was 0.00275 ± 0.00127 kcal/mol, the excess molar enthalpy (509.91 K, 8500 kPa, x1 = 0.7) was -0.0163 ± 0.00174 kcal/mol and the excess molar enthalpy (509.91 K, 8500 kPa, x1 = 0.8) was -0.0325 ± 0.00227 kcal/mol. For the same compound, the excess molar enthalpy (509.91 K, 8500 kPa, x1 = 0.9) was -0.037 ± 0.00237 kcal/mol, the excess molar enthalpy (510.17 K, 8500 kPa, x1 = 0.7) was -0.0212 ± 0.00182 kcal/mol and the excess molar enthalpy (510.19 K, 10000 kPa, x1 = 0.3) was 0.0908 ± 0.00645 kcal/mol. It also gave an excess molar enthalpy (510.22 K, 8500 kPa, x1 = 0.6) of 0.00151 ± 0.0012 kcal/mol, an excess molar enthalpy (510.22 K, 8500 kPa, x1 = 0.8) of -0.0352 ± 0.00239 kcal/mol and an excess molar enthalpy (510.43 K, 10000 kPa, x1 = 0.4) of 0.0943 ± 0.00741 kcal/mol. It also gave an excess molar enthalpy (510.63 K, 10000 kPa, x1 = 0.2) of 0.0733 ± 0.00454 kcal/mol, an excess molar enthalpy (510.71 K, 8500 kPa, x1 = 0.9) of -0.0418 ± 0.00263 kcal/mol and an excess molar enthalpy (510.88 K, 10000 kPa, x1 = 0.5) of 0.0876 ± 0.00765 kcal/mol. The excess molar enthalpy (511.51 K, 10000 kPa, x1 = 0.1) was 0.0425 ± 0.00263 kcal/mol, the excess molar enthalpy (511.67 K, 10000 kPa, x1 = 0.6) was 0.0678 ± 0.00669 kcal/mol and the excess molar enthalpy (512.18 K, 10000 kPa, x1 = 0.7) was 0.0484 ± 0.00526 kcal/mol. It also gave an excess molar enthalpy (512.47 K, 10000 kPa, x1 = 0.5) of 0.0767 ± 0.00574 kcal/mol, an excess molar enthalpy (512.6 K, 10000 kPa, x1 = 0.4) of 0.0828 ± 0.00526 kcal/mol and an excess molar enthalpy (512.67 K, 10000 kPa, x1 = 0.8) of 0.0257 ± 0.00311 kcal/mol. It also gave an excess molar enthalpy (512.9 K, 10000 kPa, x1 = 0.3) of 0.0793 ± 0.00454 kcal/mol, an excess molar enthalpy (512.9 K, 10000 kPa, x1 = 0.9) of 0.00574 ± 0.00127 kcal/mol and an excess molar enthalpy (513.15 K, 8500 kPa, x1 = 0.1) of 0.011 ± 0.0055 kcal/mol. For the same compound, the excess molar enthalpy (513.15 K, 8500 kPa, x1 = 0.2) was 0.00782 ± 0.00574 kcal/mol, the excess molar enthalpy (513.15 K, 8500 kPa, x1 = 0.3) was -0.012 ± 0.00574 kcal/mol and the excess molar enthalpy (513.15 K, 8500 kPa, x1 = 0.4) was -0.0294 ± 0.00598 kcal/mol. For the same compound, the excess molar enthalpy (513.15 K, 8500 kPa, x1 = 0.5) was -0.0556 ± 0.00693 kcal/mol, the excess molar enthalpy (513.15 K, 8500 kPa, x1 = 0.6) was -0.0928 ± 0.00837 kcal/mol and the excess molar enthalpy (513.15 K, 8500 kPa, x1 = 0.7) was -0.14 ± 0.01 kcal/mol. For the same compound, the excess molar enthalpy (513.15 K, 8500 kPa, x1 = 0.8) was -0.164 ± 0.011 kcal/mol, the excess molar enthalpy (513.15 K, 8500 kPa, x1 = 0.9) was -0.155 ± 0.01 kcal/mol and the excess molar enthalpy (513.15 K, 10000 kPa, x1 = 0.1) was 0.0396 ± 0.00201 kcal/mol. The excess molar enthalpy (513.15 K, 10000 kPa, x1 = 0.2) was 0.0663 ± 0.00287 kcal/mol, the excess molar enthalpy (513.15 K, 10000 kPa, x1 = 0.3) was 0.0779 ± 0.00311 kcal/mol and the excess molar enthalpy (513.15 K, 10000 kPa, x1 = 0.4) was 0.0799 ± 0.00311 kcal/mol. It also gave an excess molar enthalpy (513.15 K, 10000 kPa, x1 = 0.5) of 0.0728 ± 0.00311 kcal/mol, an excess molar enthalpy (513.15 K, 10000 kPa, x1 = 0.6) of 0.0598 ± 0.00263 kcal/mol and an excess molar enthalpy (513.15 K, 10000 kPa, x1 = 0.7) of 0.0408 ± 0.00215 kcal/mol. The excess molar enthalpy (513.15 K, 10000 kPa, x1 = 0.8) was 0.0228 ± 0.00172 kcal/mol, the excess molar enthalpy (513.15 K, 10000 kPa, x1 = 0.9) was 0.00569 ± 0.00146 kcal/mol and the excess molar enthalpy (513.61 K, 10000 kPa, x1 = 0.2) was 0.0641 ± 0.00406 kcal/mol. For the same compound, the excess molar enthalpy (513.87 K, 10000 kPa, x1 = 0.1) was 0.0385 ± 0.00217 kcal/mol, the excess molar enthalpy (513.88 K, 10000 kPa, x1 = 0.6) was 0.0498 ± 0.00478 kcal/mol and the excess molar enthalpy (514.32 K, 8500 kPa, x1 = 0.1) was -0.00899 ± 0.012 kcal/mol. It also gave an excess molar enthalpy (514.32 K, 8500 kPa, x1 = 0.2) of -0.0402 ± 0.0127 kcal/mol, an excess molar enthalpy (514.32 K, 8500 kPa, x1 = 0.3) of -0.0669 ± 0.0141 kcal/mol and an excess molar enthalpy (514.32 K, 8500 kPa, x1 = 0.4) of -0.118 ± 0.0177 kcal/mol. The excess molar enthalpy (514.32 K, 8500 kPa, x1 = 0.5) was -0.16 ± 0.0191 kcal/mol, the excess molar enthalpy (514.32 K, 8500 kPa, x1 = 0.6) was -0.183 ± 0.0198 kcal/mol and the excess molar enthalpy (514.32 K, 8500 kPa, x1 = 0.7) was -0.214 ± 0.021 kcal/mol. The excess molar enthalpy (514.32 K, 8500 kPa, x1 = 0.8) was -0.247 ± 0.0215 kcal/mol, the excess molar enthalpy (514.32 K, 8500 kPa, x1 = 0.9) was -0.28 ± 0.0206 kcal/mol and the excess molar enthalpy (514.44 K, 10000 kPa, x1 = 0.9) was -0.00217 ± 0.000956 kcal/mol. The excess molar enthalpy (514.48 K, 10000 kPa, x1 = 0.7) was 0.0282 ± 0.00311 kcal/mol, the excess molar enthalpy (514.52 K, 10000 kPa, x1 = 0.8) was 0.0107 ± 0.00177 kcal/mol and the excess molar enthalpy (514.98 K, 10000 kPa, x1 = 0.1) was 0.0354 ± 0.00191 kcal/mol. It also gave an excess molar enthalpy (514.98 K, 10000 kPa, x1 = 0.2) of 0.0587 ± 0.00263 kcal/mol, an excess molar enthalpy (514.98 K, 10000 kPa, x1 = 0.3) of 0.0676 ± 0.00287 kcal/mol and an excess molar enthalpy (514.98 K, 10000 kPa, x1 = 0.4) of 0.0676 ± 0.00287 kcal/mol. The excess molar enthalpy (514.98 K, 10000 kPa, x1 = 0.5) was 0.0582 ± 0.00263 kcal/mol, the excess molar enthalpy (514.98 K, 10000 kPa, x1 = 0.6) was 0.0411 ± 0.00217 kcal/mol and the excess molar enthalpy (514.98 K, 10000 kPa, x1 = 0.7) was 0.0222 ± 0.00167 kcal/mol. It also gave an excess molar enthalpy (514.98 K, 10000 kPa, x1 = 0.8) of 0.00755 ± 0.00139 kcal/mol and an excess molar enthalpy (514.98 K, 10000 kPa, x1 = 0.9) of -0.00311 ± 0.00134 kcal/mol.
